# Literature values as cited in patent EP4563141A1, “SELF-EMULSIFYING FORMULATION FOR TOPICAL USE” (Guidotti, Elena, priority 2023, dated 2025).
# Read-outs that look alike come from different tables or passages of the source.
# How the values were obtained:
# [1] = system: S. aureus biofilm formation; conditions: 0.01% (v/v); trans-nerolidol at a similar concentration
# [2] = molecular target: CB1 (Homo sapiens, UniProt P21554)
# [3] = molecular target: CB2 (Homo sapiens, UniProt P34972)
# [4] = not given; remark: listed apart in the source
# [5] = not given; remark: listed apart in the source
# [6] = human; 4% (unspecified isomer); maximization tests or repeated insult tests
# [7] = compared with animals in the control group
# [8] = several drugs, particularly 5-fluorouracil, with the use of nerolidol
# [9] = human; 4% nerolidol (unspecified isomer); single occlusive application for 48 h
# Chain of CB2 (P34972 whole entry, species assumed): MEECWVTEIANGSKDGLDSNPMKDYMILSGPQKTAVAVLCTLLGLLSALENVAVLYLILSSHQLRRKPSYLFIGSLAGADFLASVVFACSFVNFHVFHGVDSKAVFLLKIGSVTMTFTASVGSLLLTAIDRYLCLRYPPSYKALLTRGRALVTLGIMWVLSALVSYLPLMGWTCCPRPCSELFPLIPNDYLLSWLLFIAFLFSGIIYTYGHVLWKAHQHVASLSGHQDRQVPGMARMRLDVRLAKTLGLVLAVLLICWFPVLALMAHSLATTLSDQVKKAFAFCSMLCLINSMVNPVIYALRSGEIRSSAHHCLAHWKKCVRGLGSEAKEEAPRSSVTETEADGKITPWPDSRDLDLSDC
# Chain of CB1 (P21554 whole entry, species assumed): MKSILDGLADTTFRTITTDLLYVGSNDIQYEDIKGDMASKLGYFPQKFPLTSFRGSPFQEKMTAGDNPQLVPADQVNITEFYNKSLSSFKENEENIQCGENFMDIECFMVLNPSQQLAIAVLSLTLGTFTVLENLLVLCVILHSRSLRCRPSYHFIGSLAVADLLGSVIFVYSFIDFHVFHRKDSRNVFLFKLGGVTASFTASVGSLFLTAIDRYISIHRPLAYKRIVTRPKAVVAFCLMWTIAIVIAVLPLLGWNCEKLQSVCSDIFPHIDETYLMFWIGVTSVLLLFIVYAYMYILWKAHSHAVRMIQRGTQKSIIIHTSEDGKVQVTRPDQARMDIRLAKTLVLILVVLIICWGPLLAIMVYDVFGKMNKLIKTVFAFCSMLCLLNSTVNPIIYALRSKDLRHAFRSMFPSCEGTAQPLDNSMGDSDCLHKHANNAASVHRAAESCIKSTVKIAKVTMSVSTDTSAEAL
smiles,measurement,setting,value
C=CC(C)(O)CC/C=C(/C)CCC=C(C)C (stereo not drawn) [Cis-nerolidol],inhibit S. aureus biofilm formation,[1],more than 80%
C=CCc1ccc(O)c(-c2ccc(O)c(CC=C)c2)c1 [honokiol],mode of activity at CB1,[2],full agonistic activity
same,LogP,,over 4
same,mode of activity at CB2,[3],antagonistic properties
C=CCc1ccc(O)c(-c2cc(CC=C)ccc2O)c1 [magnolol],LogP,,over 4
same,mode of activity at CB2,[3],partial CBD receptor agonist
"C=CC(C)(O)CCC=C(C)CCC=C(C)C (centres unmarked) [nerolidol, 3,7,11-trimethyl-1,6,10-Dodecatrien-3-ol]",cross-sensitization,[4]; guinea pigs induced with farnesyl acetate,no cross-sensitization was observed
same,skin sensitization,"[4]; guinea pigs, two adjuvant tests, concentrations of 3% and 10%",weak reactions
same,skin irritation,"[5]; 5% in diethyl phthalate, eliminated after 48 h",very mild edema in one animal
same,skin irritation,"[5]; rabbits, undiluted (unspecified isomer), intact and abraded skin, after 48 h",well-defined erythema or mild edema
same,skin sensitization,[6],did not cause positive reactions
same,reduction in ulcerative lesion index (ULI),[7]; 50 mg/k,41.22
same,reduction in ulcerative lesion index (ULI),[7]; 250 mg/k,51.31
same,reduction in ulcerative lesion index (ULI),[7]; 500 mg/k,56.57
same,increase in diffusion rate for transdermal penetration,[8],more than 20 fold
same,skin irritation,[9],did not cause skin irritation
C=CC(C)(O)CC/C=C(\C)CCC=C(C)C (stereo not drawn) [trans-nerolidol],inhibit S. aureus biofilm formation,[1],45%
